Test results published in patent publication US8637670B2, “Imidazo [4,5-C]quinoline derivatives and their use in the treatment of tumors and/or inflammation” (Piramal Enterprises Limited, priority 2009, dated 2014).

Tests used:
[1] = test system: IL-6; assay: Human monocyte assay, LPS-stimulated IL-6 (ELISA); type: cell-based; settings: human monocytes, 1 μg/ml LPS, 5 hours
Experimental: The assay was designed as in the reference, Physiol. Res., 2003, 52, 593-598, the disclosure of which is incorporated by reference for the teaching of the assay.
Peripheral blood mononuclear cells (hPBMC) were harvested from human blood and suspended in RPMI 1640 culture medium containing 10% FCS, 100 U/mL penicillin and […] streptomycin (assay medium). Monocytes in the hPBMCs were counted using a Coulter Counter following which the cells were resuspended at 2×10^5 monocytes/mL. A cell suspension containing 2×10^4 monocytes was aliquoted per well of a 96-well plate. Subsequently, the hPBMCs were incubated for 4-5 hours at 37° C. under 5% CO2 (During the incubation, the monocytes adhered to the bottom of 96-well plastic culture plate). Following the incubation, the non-adherent lymphocytes were washed with assay medium and the adherent monocytes re-fed with assay medium. After a 48-hour incubation period (37° C., 5% CO2), monocytes were pretreated with various concentrations of compounds of Example 1-40 (prepared in DMSO) or vehicle (0.5% DMSO) for 30 minutes and stimulated with 1 μg/ml LPS (Escherchia coli 0111:B4, Sigma Chemical Co., St. Louis, Mo.). The incubation was continued for 5 hours at 37° C., 5% CO2. Supernatants were harvested, assayed for IL-6 and TNF-α by ELISA as described by the manufacturer (BD Biosciences, USA). Dexamethasone (10 μM) was used as standard for this assay. The 50% inhibitory concentration (IC50) values were calculated by a nonlinear regression method. In all experiments, a parallel plate was run to ascertain the toxicity of compounds of Example 1-40. The toxicity was determined using the MTS assay as described in Am. J. Physiol. Cell Physiol., 2003, 285, C813-C822.

[2] = test system: A549; assay: Cytotoxicity, propidium iodide assay, A549; type: cell-based; settings: Homo sapiens; Lung, A549, 48 hours treatment; read-out: IC50, C1a (A549)
Experimental: (§1) The assay was designed as in the reference, Anticancer Drugs, 2002, 13, 1-8, the disclosure of which is incorporated by reference for the teaching of the assay.
(§2) Cells from cell lines as mentioned in the table given below were seeded at a density of 3000 cells/well in a white opaque 96-well plate. Following incubation at 37° C./5% CO2 for a period of 18-24 hours, the cells were treated with various concentrations (stock solution was prepared in DMSO and subsequent dilutions were made in media as per ATCC guidelines) of the compounds of Example 1-40 was for a period of 48 hours. At the end of treatment, the spent culture medium was discarded, the cells were washed with 1×PBS and 200 μl of 7 μg/ml propidium iodide was added to each well. The plates were frozen at −70° C. for at least 24 hours. For analysis, the plates were brought to RT, allowed to thaw and were read in PoleStar fluorimeter with the fluorescence setting. The percentage of viable cells in the non-treated set of wells was considered to be 100 and the percentage viability following treatment was calculated accordingly. IC50 values were calculated from graphs plotted using these percentages. Table 4 depicts the IC50 values of compounds of Example 1-40 in individual cell lines.
(§3) The abbreviations for the Cell Lines as used in Table 4 are: […]

[3] = test system: HCT116; assay: Cytotoxicity, propidium iodide assay, HCT116; type: cell-based; settings: Homo sapiens, HCT-116; Colon, HCT116, 48 hours treatment; read-out: IC50, C4a (HCT116)
Experimental: as §1, §2, §3

[4] = target: T1, PI3Kα kinase (Homo sapiens, UniProt P42336); assay: PI3Kα assay (32P incorporation into phosphatidylinositol, TLC densitometry); type: biochemical; settings: At 100 nM
T1 construct: purchased Millipore, USA
Experimental: The assay was designed as in the reference, Cell, 2006, 125, 733-47 (Supplemental Data), the disclosure of which is incorporated by reference for the teaching of the assay.
The kinase reaction was carried out in a 25 μL volume in a 1.5 mL microcentrifuge tube. The reaction mixture consisted of kinase buffer (10 mM Hepes, pH 7.5, 50 mM MgCl2), 20 ng PI3Kα kinase (Millipore, USA), 12.5 μg phosphatidylinositol (PI), 10 μM ATP and 1 μCi ^32γ P dATP. Compounds of Example 1-40 were added at concentrations (stock solution was prepared in DMSO and subsequent dilutions were made in kinase buffer) as mentioned in the table. The reaction mixture was incubated at 30° C. for 20 minutes and was terminated by adding 1:1 mixture of MeOH and chloroform. The tube contents were mixed on a vortex mixer and centrifuged at 10000 rpm for 2 minutes. 10 μL of the organic (lower) phase was spotted on to a TLC plate (silica, mobile phase: n-propanol and 2 M glacial acetic acid in 65:35 ratio). The plates were dried and exposed to an X-ray film. The bands appearing as a result of ^32γ P incorporation in PI were quantitated using the QuantityOne (BioRad, USA) densitometry program. PI-103 (Calbiochem, USA) was used as a standard.

[5] = test system: H460; assay: Cytotoxicity, propidium iodide assay, H460; type: cell-based; settings: Homo sapiens, NCI-H460; Lung, H460, 48 hours treatment; read-out: IC50, C1b (H460)
Experimental: as §1, §2, §3

[6] = test system: PC3; assay: Cytotoxicity, propidium iodide assay, PC3; type: cell-based; settings: Homo sapiens, PC-3; Prostate, PC3, 48 hours treatment; read-out: IC50, C2a (PC3)
Experimental: as §1, §2, §3

[7] = test system: A2780; assay: Cytotoxicity, propidium iodide assay, A2780; type: cell-based; settings: Homo sapiens; Ovarian, A2780, 48 hours treatment; read-out: IC50, C3a (A2780)
Experimental: as §1, §2, §3

T1 sequence (P42336 whole entry): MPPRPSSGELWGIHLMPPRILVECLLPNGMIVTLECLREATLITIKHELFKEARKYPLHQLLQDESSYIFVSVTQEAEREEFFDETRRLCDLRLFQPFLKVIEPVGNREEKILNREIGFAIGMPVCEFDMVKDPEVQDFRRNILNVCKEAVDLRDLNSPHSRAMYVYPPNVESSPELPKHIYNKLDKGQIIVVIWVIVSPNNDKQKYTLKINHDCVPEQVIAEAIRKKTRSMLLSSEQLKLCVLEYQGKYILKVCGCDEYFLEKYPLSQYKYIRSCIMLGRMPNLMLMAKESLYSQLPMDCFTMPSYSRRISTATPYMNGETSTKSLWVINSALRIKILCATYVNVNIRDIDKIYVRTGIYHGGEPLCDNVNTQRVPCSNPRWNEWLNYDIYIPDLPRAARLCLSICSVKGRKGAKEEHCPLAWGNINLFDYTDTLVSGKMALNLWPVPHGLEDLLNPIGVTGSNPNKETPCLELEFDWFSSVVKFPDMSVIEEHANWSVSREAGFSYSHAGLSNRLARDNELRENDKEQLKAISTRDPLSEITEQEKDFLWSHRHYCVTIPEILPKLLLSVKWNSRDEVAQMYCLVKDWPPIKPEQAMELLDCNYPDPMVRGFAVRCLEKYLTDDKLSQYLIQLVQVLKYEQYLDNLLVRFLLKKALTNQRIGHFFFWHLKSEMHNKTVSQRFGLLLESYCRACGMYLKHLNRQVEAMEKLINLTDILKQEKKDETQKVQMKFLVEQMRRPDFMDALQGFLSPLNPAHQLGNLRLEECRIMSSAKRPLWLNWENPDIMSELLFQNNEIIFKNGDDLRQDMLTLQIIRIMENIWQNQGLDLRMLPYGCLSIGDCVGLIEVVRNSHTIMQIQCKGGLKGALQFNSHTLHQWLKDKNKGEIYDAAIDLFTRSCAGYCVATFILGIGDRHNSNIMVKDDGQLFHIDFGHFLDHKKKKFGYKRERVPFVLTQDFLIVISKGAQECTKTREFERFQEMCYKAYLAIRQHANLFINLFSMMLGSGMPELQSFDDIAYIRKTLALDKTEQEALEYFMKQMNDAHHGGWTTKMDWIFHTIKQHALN
T1 sequence (P27986 whole entry partner): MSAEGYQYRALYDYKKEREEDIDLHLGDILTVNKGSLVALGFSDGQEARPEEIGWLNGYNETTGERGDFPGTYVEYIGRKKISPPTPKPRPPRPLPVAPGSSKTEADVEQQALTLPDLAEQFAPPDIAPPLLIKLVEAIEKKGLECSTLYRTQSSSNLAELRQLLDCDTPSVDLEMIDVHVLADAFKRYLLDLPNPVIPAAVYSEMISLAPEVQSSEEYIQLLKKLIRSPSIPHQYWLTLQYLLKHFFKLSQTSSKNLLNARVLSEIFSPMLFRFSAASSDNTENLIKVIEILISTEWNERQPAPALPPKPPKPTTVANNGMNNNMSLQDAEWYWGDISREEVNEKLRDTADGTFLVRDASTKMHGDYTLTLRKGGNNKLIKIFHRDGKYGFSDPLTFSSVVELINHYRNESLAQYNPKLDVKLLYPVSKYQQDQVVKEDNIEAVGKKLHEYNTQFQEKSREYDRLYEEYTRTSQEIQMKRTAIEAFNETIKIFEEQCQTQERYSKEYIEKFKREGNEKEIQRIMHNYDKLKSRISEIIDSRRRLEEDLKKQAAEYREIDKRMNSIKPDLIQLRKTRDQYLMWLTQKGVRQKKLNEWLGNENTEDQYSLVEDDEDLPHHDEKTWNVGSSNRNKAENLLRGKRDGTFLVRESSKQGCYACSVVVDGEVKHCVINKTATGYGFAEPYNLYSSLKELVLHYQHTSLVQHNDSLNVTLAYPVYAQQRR

Row | IC50 [1] [nM] | inhibition at 0.1 µM [4] [%] | SMILES | IC50 [2] [nM] | IC50 [3] [nM] | IC50 [5] [nM] | IC50 [6] [nM] | IC50 [7] [nM]
1 | 1000 to 10000 | – | COc1cccc(S(=O)(=O)n2c(=O)n(-c3ccc(C(C)(C)C#N)cc3)c3c4cc(Br)ccc4ncc32)c1 [Example 14, 2-(4-(8-Bromo-3-(3-methoxyphenylsulfonyl)-2-oxo-2,3-dihydro-1H-imidazo[4,5-c]quinolin-1-yl)phenyl)-2-methylpropanenitrile] | – | – | – | – | –
2 | 10000 to 30000 | – | Cc1ccc2ncc3c(c2c1)n(-c1ccc(C(C)(C)C#N)cc1)c(=O)n3S(=O)(=O)c1cccc(F)c1 [Example 22, 2-(4-(3-(3-Fluorophenylsulfonyl)-8-methyl-2-oxo-2,3-dihydro-1H-imidazo[4,5-c]quinolin-1-yl)phenyl)-2-methylpropanenitrile] | > 3000 | > 3000 | – | – | –
3 | – | 10 to 50 | Cc1ccc(S(=O)(=O)n2c(=O)n(-c3ccc(C(C)(C)C#N)cc3)c3c4cc(Br)ccc4ncc32)cc1 [Example 8, 2-(4-(8-Bromo-2-oxo-3-tosyl-2,3-dihydro-1H-imidazo[4,5-c]quinolin-1-yl)phenyl)-2-methylpropanenitrile] | – | – | – | – | –
4 | – | 10 to 50 | CC(C)(C#N)c1ccc(-n2c(=O)n(S(=O)(=O)c3ccccc3C#N)c3cnc4ccc(Cl)cc4c32)cc1 [Example 20, 2-(8-Chloro-1-(4-(2-cyanopropan-2-yl)phenyl)-2-oxo-1H-imidazo[4,5-c]quinolin-3(2H)-ylsulfonyl)benzonitrile] | – | – | – | – | –
5 | > 30000 | 10 to 50 | CC(C)(C#N)c1ccc(-n2c(=O)n(C(=O)NCc3ccccc3)c3cnc4ccc(Br)cc4c32)cc1 [Example 32, N-benzyl-8-bromo-1-(4-(2-cyanopropan-2-yl)phenyl)-2-oxo-1H-imidazo[4,5-c]quinoline-3(2H)-carboxamide] | – | – | – | – | –
6 | ≤ 1000 | – | C/C=C/C(=O)n1c(=O)n(-c2ccc(C(C)(C)C#N)cc2)c2c3cc(C)ccc3ncc21 [Example 39, (E)-2-(4-(3-But-2-enoyl-8-methyl-2-oxo-2,3-dihydro-1H-imidazo[4,5-c]quinolin-1-yl)phenyl)-2-methylpropanenitrile] | > 3000 | > 3000 | – | – | –
7 | – | 10 to 50 | CC(C)(C#N)c1ccc(-n2c(=O)n(S(=O)(=O)c3ccccc3)c3cnc4ccc(Br)cc4c32)cc1 [Example 7, 2-(4-(8-Bromo-2-oxo-3-(phenylsulfonyl)-2,3-dihydro-1H-imidazo[4,5-c]quinolin-1-yl)phenyl)-2-methylpropanenitrile] | – | – | – | – | –
8 | – | – | Cc1ccc2ncc3c(c2c1)n(-c1ccc(C(C)(C)C#N)cc1)c(=O)n3S(=O)(=O)c1cc([N+](=O)[O-])ccc1C [Example 23, 2-Methyl-2-(4-(8-methyl-3-(2-methyl-5-nitrophenylsulfonyl)-2-oxo-2,3-dihydro-1H-imidazo[4,5-c]quinolin-1-yl)phenyl)propanenitrile] | > 3000 | > 3000 | – | – | –
9 | – | – | Cc1ccc2ncc3c(c2c1)n(-c1ccc(C(C)(C)C#N)cc1)c(=O)n3S(=O)(=O)c1cccc2cccnc12 [Example 24, 2-Methyl-2-(4-(8-methyl-2-oxo-3-(quinolin-8-ylsulfonyl)-2,3-dihydro-1H-imidazo[4,5-c]quinolin-1-yl)phenyl)propanenitrile] | – | > 3000 | > 3000 | > 3000 | > 3000
10 | 1000 to 10000 | – | Cc1cccc(S(=O)(=O)n2c(=O)n(-c3ccc(C(C)(C)C#N)cc3)c3c4cc(C)ccc4ncc32)c1 [Example 21, 2-Methyl-2-(4-(8-methyl-2-oxo-3-(m-tolylsulfonyl)-2,3-dihydro-1H-imidazo[4,5-c]quinolin-1-yl)phenyl)propanenitrile] | > 3000 | > 3000 | – | – | –
11 | > 30000 | – | CC(=O)c1ccc(S(=O)(=O)n2c(=O)n(-c3ccc(C(C)(C)C#N)cc3)c3c4cc(Br)ccc4ncc32)cc1 [Example 12, 2-(4-(3-(4-Acetylphenylsulfonyl)-8-bromo-2-oxo-2,3-dihydro-1H-imidazo[4,5-c]quinolin-1-yl)phenyl)-2-methylpropanenitrile] | 1000 to 3000 | > 3000 | 1000 to 3000 | > 3000 | 1000 to 3000
